Test: Human HepG2 cell viability assay in 384 well format
Format: toxicity, cell-based
Parameters: dose 125 nL, time 70.5 hour; cytotoxicity at 70.5 h: concentration not given beside the values
Settings: HepG2 cells, read-out: Inhibition

SMILES | cytotoxicity at 70.5 h [%]
CCn1ncc2c1C(COCC1CC1)CN(c1ccncn1)C2 (configuration not stated) | -8.04
Cc1cc(CS(=O)(=O)NC2CCCCC2)on1 | -15.3
COc1ccc(-n2ncc3c2NC(=O)CSC3C(C)C)cc1 (configuration not stated) | -3.9
CC(C)c1noc(C(C)Nc2nccc(CCC(F)(F)F)n2)n1 (configuration not stated) | -10.8
Cc1ccsc1CNC(=O)CSc1nnc[nH]1 | -11.1
Cc1cc(C)c(CNC(=O)C(C)Oc2cccc(C#N)c2)c(=O)[nH]1 (configuration not stated) | -11.6
Cc1noc2ncnc(NC(CC(C)(C)C)c3cccnc3)c12 (configuration not stated) | -14
c1cncc(-c2ccc3c(c2)CCC32CCN(Cc3nccs3)CC2)c1 | -2.27
Cc1ccsc1C(=O)NCc1ccnc(C2CCCOC2)n1 (configuration not stated) | 13.6
CCOC(=O)c1sc(NC(=O)CCCC(=O)O)c(C#N)c1C | -4.89
Cc1csc(CN2CCC[C@]3(C[C@H](Oc4ccccn4)CO3)C2)n1 | 16
COc1cc(Cl)ccc1CNC(=O)N1CCC(n2cncn2)CC1 | 0.114
CC(=O)c1ccc(C(=O)Nc2ccnc(N(C)C)n2)cc1 | 6.64
O=C1O[C@@H]2CN(Cc3cc4ccccc4o3)C[C@@H]2N1Cc1ccccn1 | -4.9
CCn1ccnc1CNc1nccc(-c2c(C)nn(C)c2C)n1 | -15.1
CC(NCc1ccncc1)c1cc2c(cc1Br)OCCO2 (configuration not stated) | -4.83
CNS(=O)(=O)c1ccc(CN2CCN3CCNC(=O)C3C2)cc1 (configuration not stated) | -6.1
Cc1cc(N2C[C@H](NC(=O)C3(C#N)CCOCC3)[C@@H](C(C)C)C2)ccn1 | -10.5
CNC(=O)[C@@H]1C[C@@H](N)CN1c1nnc(-c2ccccc2)s1 | -4.95
CC(=O)NCC(=O)N1CCN(C)c2ncccc2C1 | -11.3
N#Cc1c(Cl)nsc1NCCN1CCOCC1 | -10.1
CCOC(=O)NCCC(=O)NC(C)(C)c1ccc2c(c1)OCCO2 | -6.26
OC(COCc1ccccc1)CN1CC(n2cccn2)C1 (configuration not stated) | -3.54

SMILES | cytotoxicity at 70.5 h [%]
CN(Cc1cn2c(n1)CN(C(=O)c1ccc[nH]1)CC2)Cc1ccco1 | 0.342
Cc1ccc(-c2nn(-c3cccc(F)c3)cc2CN(CCO)CCO)o1 | -17.7
CN1CCN(CC2CC2)C(=O)c2cnc(N3CCCC3)nc21 | 15.9
CN(C)C(=O)CN1CC[C@H]2[C@H]1CCN2c1ncccn1 | -20.8
C[C@@H]1CN(c2nc(N)nc3c2CCC3)CC[C@@]1(O)C1CCC1 | 4.77
CN1CCN(c2ccc(NC(=O)c3cccs3)c(C(F)(F)F)c2)CC1 | -9.41
CC(C)N1Cc2c(C(=O)N3CCOCC3)nn(C)c2C1 | -13.7
Cc1cc(C)n(CCCN(C)C(=O)[C@H]2CCCO2)n1 | -14.9
Cc1c(C2NC3(CCCC3)C(=O)N2CC2CC2)cc(C#N)n1C (configuration not stated) | -8.72
Cc1cnc(CNCc2cn(CCN3CCSCC3)nc2C)cn1 | 24.8
CCCC(NC(=O)NCc1cccc(N(C)C)n1)c1ccccn1 (configuration not stated) | -18.8
CC(C)CC(NC(=O)c1ccn(C)c(=O)c1)c1ccccc1 (configuration not stated) | 33.2
O=C1COC2(CCN(Cc3cccs3)CC2)CN1c1cccnc1 | 5.94
COc1ccc(-c2n[nH]cc2C2SCC(=O)Nc3[nH]ncc32)cc1 (configuration not stated) | -9.36
O=C(O)c1nnn(-c2ccccc2)c1-c1ccncc1 | -30.6
Cc1ncnc2c1CCN(S(=O)(=O)C1CC1)CC2 | -13.2
Nc1ccc(C(=O)N2CCCC(c3nccn3Cc3cscn3)C2)cn1 (configuration not stated) | -3.06
O=C(c1ccncn1)N1CCC[C@]2(C[C@@H](OCC3CC3)CO2)C1 | -13.8
Cc1nc(COc2ccc(OC3CCCCNC3=O)cc2)oc1C (configuration not stated) | 1.82
O=C(NCCOC1CCCCC1)c1ccc(-c2ccco2)[nH]c1=O | 15.1
CC1CN(C(=O)c2ccnc(-n3cncn3)c2)c2ccccc2S1 (configuration not stated) | -0.177
O=C(COC1CCOC1)N(CC(F)F)c1cccc(Cl)c1 (configuration not stated) | -3.13
Cc1nn(C(C)C)c(C)c1NC(=O)c1ccc(F)cc1 | -2.59

SMILES | cytotoxicity at 70.5 h [%]
O=C1CC2(CCCC2)CC(=O)N1Cc1ncccn1 | 19.8
O=C(c1cccs1)N1CCC(O)(CN2CCc3ccccc3C2)C1 (configuration not stated) | -2.95
CC1CN(Cc2nnsc2Cl)CCN1c1nccs1 (configuration not stated) | -19.1
CC1N(c2cnn(C)c2)C(=O)COC12CCN(Cc1ccoc1)CC2 (configuration not stated) | 2.62
Cc1noc(C)c1CN1C(=O)[C@H]2CC[C@@H]1CN(Cc1ccc(Cl)cc1)C2 | 8.52
Cc1cnn(CC2CCCN2CC(=O)N(C)CCC#N)c1 (configuration not stated) | -7.49
O=C(c1cccc(O)c1)N1CCN(Cc2nnc(C3CCC3)o2)CC1 | 23.6
CO[C@@H]1CN(c2ccccc2)S(=O)(=O)[C@@]12CCN(C(C)=O)C2 | -10.5
Cn1nccc1C(=O)N1C[C@@H]2CN(S(C)(=O)=O)CCO[C@@H]2C1 | -3.72
CCn1ccnc1CN1CCN(c2cc(C)nc(C3CCCN3)c2)CC1 (configuration not stated) | -5.1
Cc1cccc(C(C(=O)NCc2csc(-c3ncccn3)n2)N(C)C)c1 (configuration not stated) | -0.325
Cc1cc(NC(=O)Cn2ncc(Br)c2C)no1 | -2.58
CCS(=O)(=O)N1CCc2cc(C(=O)NC)c(NCC3CC3)nc2CC1 | -4.13
CCc1nc(C2CCCN2CCc2cccs2)no1 (configuration not stated) | 17.3
CNC(=O)[C@H]1C[C@@H]2CN(Cc3c(C)noc3C)C[C@@H]2N1C(C)=O | -3.36
Cc1ccc(CN2C[C@@H](C(=O)Nc3cccnc3)C[C@H]3OCC[C@H]32)o1 | 21.9
CNC(=O)[C@@H]1C[C@H]2CN(C(=O)c3ccco3)C[C@H]2N1C | 2.59
COc1ccc(-c2cc(CNc3ncnc4c3CCNCC4)no2)cc1 | 23.4
CCN(C(=O)Nc1nccs1)C(C)c1cccc(O)c1 (configuration not stated) | -9.8
CCn1ccnc1CNCC1CCCN1c1cc(NC)ncn1 (configuration not stated) | -4.32
N#Cc1ccccc1C(=O)N1C[C@H]2CC[C@@H]1CN(Cc1ccccc1)C2 | -13.1
CN(C(=O)Nc1nncs1)C1CCN(c2ccccc2Cl)C1=O (configuration not stated) | -21.1
CCc1nccn1C1CCCN(C(=O)COCC(F)(F)F)C1 (configuration not stated) | -1.33

SMILES | cytotoxicity at 70.5 h [%]
O=C(CC1CC1)NCc1cn2c(n1)CN(Cc1nccs1)CC2 | -6.29
CCN(C)C(=O)Cn1c(-c2ccco2)nn(-c2ccccc2OC)c1=O | 0.98
Cc1ccccc1C1CCN(C(=O)CCNC(=O)C(C)(C)C)C1 (configuration not stated) | -1.33
Cc1cnn(CCCn2ncc(N3CCC(CN)C3)cc2=O)c1 (configuration not stated) | 9.78
CNC(=O)c1ccc(=O)n(Cc2csc(N(C)C(C)=O)n2)c1 | -2.61
Cc1c(CCC(=O)N2CCCC2c2ccnc(N(C)C)c2)cnn1C (configuration not stated) | -1.8
CNCc1ccc([C@@H]2CN(C(C)=O)C[C@H]2C(=O)N(C)C)cc1 | -1.57
CN(CCO)CC1COCCN1C(=O)C1CCCCC1 (configuration not stated) | -14.2
Cc1cccc(CC(=O)N2CCN(c3nccn3C)CC2)c1 | -1.55
CC(C)N(CC(N)=O)C(=O)c1cc(F)ccc1N1CCN(C)CC1 | -5.36
O=c1oc(-c2cccs2)nn1CC(O)c1ccccc1 (configuration not stated) | -13.3
c1cc(CN2Cc3nnn(CC4CC4)c3C(COCC3CC3)C2)co1 (configuration not stated) | -8.27
O=C(Cn1ccc2ccc(Cl)cc21)NCc1ccc(C(=O)O)cc1 | -2.47
CCCc1nnc(NC2CCN(C3CCOCC3)CC2)o1 | -9.47
CCN(C)C(=O)c1ccc(N2CCC(Oc3cccc(F)c3)CC2)nc1 | -4.75
COc1nn(C)c2c1CCCN(C(=O)c1cccc3cccnc13)C2 | -4.18
Cc1noc(C)c1CN1CCn2cc(CNC(=O)C3CCC3)nc2C1 | -12.7
CN(Cc1nncn1C)c1nccc(C2CCCC2)n1 | 6.4
CN(Cc1cnn(C)c1)Cc1nc(CCc2ccccc2)no1 | -4.56
CCc1ccccc1CNC(=O)CNCC(F)(F)F | -2.89
O=C(NCCc1cccc(Cl)c1)C1CCOCC1 | 0.784
Cc1cccc(OCC2CCCN(C(=O)CCn3ccccc3=O)C2)c1 (configuration not stated) | -11.2
OCCOc1cc(F)ccc1NCc1cccc(F)c1F | 1.35

SMILES | cytotoxicity at 70.5 h [%]
CN(C)CCn1c2c(ccc1=O)CCN(C(=O)c1cccs1)CC2 | -5.63
Cc1ccc(C(=O)N2CC[C@H]3[C@H]2CCN3CC2CCOCC2)cc1F | 3.15
CNC(=O)c1ccc2c(c1)C1(CCN(CCOC)CC1)C(=O)N2 | 0.0675
COc1cccc2sc(N3CC(OC(C)=O)C3)nc12 | -11.2
Fc1cccnc1N1CCOCC2(CCCNC2)C1 (configuration not stated) | 0.635
Cc1nc(N2CCCC2C(=O)NC(C)(C)CO)nc2ccccc12 (configuration not stated) | -7.7
CC(=O)Nc1cccc(OCCNC(=O)N(C)Cc2ccncc2)c1 | 20.7
CC(C(=O)N1CCCN(Cc2ccc(C#N)cc2)CC1)n1cccn1 (configuration not stated) | 1.6
CNS(=O)(=O)c1ccc(CNC(=O)N2CCOC(C)C2)cc1 (configuration not stated) | 10.2
CC(C)c1cc(C(=O)N2CCN(CC3CC3)[C@@H]3CS(=O)(=O)C[C@@H]32)on1 | -0.581
COCCC(=O)N1CCCC(CCC(=O)NCc2ccccc2F)C1 (configuration not stated) | -6.55
O=C([C@H]1COC[C@H]2CN(C3CCOCC3)C[C@H]21)N1CCCO1 | -1.26
CN1CCOC[C@H]1c1nc(C(C)(C)C)c[nH]1 | 11.4
Clc1ccccc1CCN1CCN(c2ccc3nncn3n2)CC1 | -16.3
CNS(=O)(=O)c1cccc(C(C)NCc2ccco2)c1 (configuration not stated) | -8.45
CCc1nc2ccccc2n1C(CC)C(=O)N(C)CCc1noc(C)n1 (configuration not stated) | -20.6
COCCNC(=O)c1ccc(NCc2c(C)noc2C)cc1Cl | -6.64
CS(=O)(=O)Cc1ccc(Cl)cc1NCc1ccccc1F | 27.6
Cc1ccc(=O)n(CC2(O)CCN(Cc3cc(C)c(O)c(C)c3)CC2)n1 | 22.7
Cc1ocnc1C(=O)N1CC[C@@H](O)[C@@H](O)[C@H](N2CCC(F)(F)CC2)C1 | -3.42

From ChEMBL document CHEMBL3507680, “University of Dundee, Gates Library screen for HepG2 cell viability”
